Twelve compounds from patent publication US20120165319A1, “INHIBITORS OF INTERLEUKIN-1 BETA CONVERTING ENZYME” (VERTEX PHARMACEUTICALS INCORPORATED, priority 1995, published 2012) can be followed below.

SMILES strings stand for the structures. Where two headings read alike, the source gives them in different places.

In data set [1] the target is T1, ICE (Homo sapiens, UniProt P29466).
T1 sequence (P29466 120-297 limits assumed): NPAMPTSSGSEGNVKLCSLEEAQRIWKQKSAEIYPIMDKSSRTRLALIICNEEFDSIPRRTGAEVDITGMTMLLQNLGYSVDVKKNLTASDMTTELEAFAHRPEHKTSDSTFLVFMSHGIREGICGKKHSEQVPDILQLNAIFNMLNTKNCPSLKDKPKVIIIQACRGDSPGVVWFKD
T1 sequence (P29466 317-404 limits assumed): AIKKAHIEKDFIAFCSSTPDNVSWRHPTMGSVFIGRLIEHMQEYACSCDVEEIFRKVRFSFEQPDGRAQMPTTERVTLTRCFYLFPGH
In words: Enzyme assay with UV-visible substrate (visible ICE assay, Succinyl-Tyr-Val-Ala-Asp-pNitroanilide). In kind it is biochemical. The method, boiled down:
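ICE preincubated with inhibitor in DMSO for 15 min at room temperature, then Suc-Tyr-Val-Ala-Asp-pNA added. pNA release read at 405-603 nm for 20 min at 37 °C, rate from linear fit in mOD/min. Ki and inhibition mode from fits of rates at varying inhibitor concentrations to standard kinetic equations.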

Data set [2] can be described thus: In vivo rat clearance assay. The note with it: plasma, iv. The protocol: In Vivo Rat Clearance Assay
Cannulations of the jugular and carotid vessels of rats under anesthesia were performed one day prior to the pharmacokinetic study. M. J. Free, R. A. Jaffee; ‘Cannulation techniques for the collection blood and other bodily fluids’; in: Animal Models; p. 480-495; N. J. Alexander, Ed.; Academic Press; (1978). Drug (10 mg/mL) was administered via the jugular vein in a vehicle usually consisting of: propylene glycol/saline, containing 100 mM sodium bicarbonate in a 1:1 ratio. Animals were dosed with 10-20 mg drug/kg and blood samples were drawn at 0, 2, 5, 7, 10, 15, 20, 30, 60, and 90 minutes from an indwelling carotid catheter. The blood was centrifuged to plasma and stored at −20° C. until analysis. Pharmacokinetic analysis of data was performed by non-linear regression using standard software such as RStrip (MicroMath Software, UT) and/or Pcnonlin (SCI Software, NC) to obtain clearance values.
Rat plasma was extracted with an equal volume of acetonitrile (containing 0.1% TFA). Samples were then centrifuged at approximately 1,000×g and the supernatant analyzed by gradient HPLC. A typical assay procedure is described below.
A standard curve was run at 20, 10, 5, 2 and 1 μg/mL concentrations.

The test system of data set [3] is IL-1β production, LPS-challenged mice. In words: In vivo acute assay for efficacy as anti-inflammatory agent: LPS-induced IL-1β production in mice. Details: species or system mouse. Conditions: Mus musculus, po, LPS challenged mice, compound PO, 50 mg/kg, read-out: percent inhibition of IL-1β production. The method, boiled down:
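CD1 mice (n=6) were challenged with LPS 20 mg/kg IP and given compound IP in olive oil:DMSO:ethanol (90:5:5) 1 h after LPS, or at the time of challenge for some analogs. Blood was taken 7 h after LPS and serum IL-1β was measured by ELISA. Oral gavage at 50 mg/kg was also tested.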

Data set [4] relates to IL-1β, human peripheral blood mononuclear cells (PBMC). The data set can be described thus: PBMC cell assay: IL-1β assay with human PBMC or enriched adherent mononuclear cells, LPS-stimulated. Format: cell-based. Conditions: Homo sapiens, PBMC, Table 17. In short, it runs like this: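 Buffy-coat human PBMC at 6×10^6 cells/ml, or adherent monocytes enriched by 1 h adherence (2.5−3.0×10^5 cells/well), are given 5–6 compound dilutions bracketing the ICE Ki (final DMSO 0.1%) plus LPS at a final 5 ng/ml. They are incubated 16–18 hr at 37 °C, 5% CO2, and supernatant mature IL-1β is measured by ELISA, with duplicate cultures and duplicate ELISAs.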

The subject of data set [5] is IL-1β, human whole blood. The data set can be described thus: Whole blood assay for IL-1β production. In kind it is cell-based. The note with it: Homo sapiens, Table 17; read-out: Whole human blood IC50. In short, it runs like this: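 Human whole blood collected on Na2EDTA was treated with serially diluted compound in saline and then stimulated with LPS at 5.0 ng/ml final, for 16-18 h at 30 °C, in duplicate or triplicate. Plasma IL-1β was measured by ELISA at 1:200 dilution.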

Setting [6] is: 0 h, administered 0 h relative to time of LPS challenge.
[7] abbreviates: 2 h, administered −2 h relative to time of LPS challenge.

The term melting point denotes the temperature, or range, at which the solid turns liquid. In general, Ki refers to the equilibrium dissociation constant of an inhibitor or competing ligand from its target. A lower Ki goes with tighter binding. For orientation: clearance means a measure of how efficiently the substance is removed, as volume per time. In turn, `O=C[C@H](CC(=O)O)NC(=O)[C@@H]1CCCN2C(=O)CCN(NC(=O)c3ccc(O)cc3)C(=O)N12` [Compound 1056, [3S(4S)]3-[6,10-Dioxo-7-(4-hydroxybenzoylamino)-1,2,3,4,7,8,9,10-octahydro-6H-pyridazino[1,2-a][1,2,4]triazepine-4-carboxamido]-4-oxobutanoic acid] showed a melting point of over 300 °C. In data set [1] (Table 17), affinity was put at a Ki of 170 nM. This compound also returned a clearance in data set [2] (Table 17) of 17 mL/min/kg.
In general, inhibition refers to the relative decrease from the control value, in per cent. As to `O=C[C@H](CC(=O)O)NC(=O)[C@@H]1CCCN2C(=O)CC[C@H](NC(=O)c3ccc(O)cc3)C(=O)N12` [Compound 456], the melting point was over 260 °C. In data set [1] (Table 5), this compound displayed a Ki of 4.5 nM. Further, the inhibition at 50 mg/kg in data set [3] (setting [6]) was 69%. In addition, the inhibition at 50 mg/kg in data set [3] (1 h, administered +1 h relative to time of LPS challenge) stood at 56%. Also, the inhibition at 50 mg/kg in data set [3] (setting [7]) was determined as 41%. Further, the clearance in data set [2] (10-20 mg/kg) was determined as 12.7 mL/min/kg.
Usually IC50 stands for the concentration needed to halve the response being measured. As for `COC(=O)N[C@H]1CCC(=O)N2CCC[C@@H](C(=O)N[C@@H](CC(=O)O)C(=O)COc3cccnc3)N2C1=O` [Compound 283c, [3S(1S,9S)]3-[6,10-Dioxo-9-(methoxycarbonylamino)-1,2,3,4,7,8,9,10-octahydro-6H-pyridazino[1,2-a][1,2]diazepine-1-carboxamido]-4-oxo-5-(3-pyridinyloxy)pentanoic acid], the melting point is 90 to 105 °C. In data set [4], this compound yielded an IC50 of 4000 nM. The same compound registered a clearance in data set [2] (Table 17) of 50 mL/min/kg.
For `COC(=O)N[C@H]1CCC(=O)N2CCC[C@@H](C(=O)N[C@@H](CC(=O)O)C(=O)CSc3nnnn3-c3ccccc3)N2C1=O` [Compound 280c, [3S(1S,9S)]3-[6,10-Dioxo-9-(methoxycarbonylamino)-1,2,3,4,7,8,9,10-octahydro-6H-pyridazino[1,2-a][1,2]diazepine-1-carboxamido]-4-oxo-5-[5-(1-phenyltetrazolyl)-thio]pentanoic acid], in that order: 105 to 130 °C, 10000 nM and 86 mL/min/kg.
With `O=C1C[C@H](NC(=O)[C@@H]2CCCN3C(=O)CC[C@H](NC(=O)c4ccccc4)C(=O)N23)C(OC2CCCC2)O1` (stereo partly drawn) [Compound 2100l, [1S,9S(2RS,3S)]9-Benzamido-N-(2-cyclopentyloxy-5-oxo-tetrahydrofuran-3-yl)-6,10-dioxo-1,2,3,4,7,8,9,10-octahydro-6H-pyridazino[1,2-a][1,2]diazepine-1-carboxamide], the melting point lay within 172 to 180 °C. The IC50 in data set [5] was 2200 nM. This compound yielded an IC50 in data set [4] of 750 nM. Moreover, the inhibition at 50 mg/kg in data set [3] (setting [6]) was found to be 28%. In addition, the inhibition at 50 mg/kg in data set [3] (setting [7]) came to 52%.
`O=C[C@H](CC(=O)O)NC(=O)[C@@H]1CCCN2C(=O)CCN(NC(=O)Cc3ccccc3)C(=O)N12` [Compound 1095, [3S(4S)]3-(6,10-Dioxo-1,2,3,4,7,8,9,10-octahydro-7-phenylacetylamino-6H-pyridazino[1,2-a][1,2,4]triazepine-4-carboxamido)-4-oxobutanoic acid] showed a melting point of 180 to 186 °C. The compound further returned a Ki in data set [1] (Table 17) of 360 nM. The IC50 in data set [4] was determined as 6000 nM. The clearance in data set [2] (Table 17) amounted to 28 mL/min/kg.
For the compound `CC(=O)Nc1ccc(C(=O)N[C@H]2CCC(=O)N3CCC[C@@H](C(=O)N[C@H]4CC(=O)OC4OCc4ccccc4)N3C2=O)cc1` (stereo partly drawn) [Compound 213x, [1S,9S(2RS,3S)]9-[4-(Acetylamino)benzoylamino]-N-(2-benzyloxy-5-oxo-tetrahydrofuran-3-yl)-6,10-dioxo-1,2,3,4,7,8,9,10-octahydro-6H-pyridazino[1,2-a][1,2]diazepine-1-carboximide], the melting point is 150 to 170 °C. The IC50 in data set [5] stood at 2500 nM. In addition, the midpoint of inhibition in data set [4], the IC50, lay at 4500 nM. The inhibition at 50 mg/kg in data set [3] (setting [6]) was determined as 78%. In addition, the inhibition at 50 mg/kg in data set [3] (setting [7]) worked out at 0%.
Turning to `O=C[C@H](CC(=O)O)NC(=O)[C@@H]1CCCN2C(=O)CCN(NC(=O)Nc3ccccc3)C(=O)N12` [Compound 265f, [3S(4S)]3-[6,10-Dioxo-1,2,3,4,7,8,9,10-octahydro-7-(3-phenylureido)-6H-pyridazino[1,2-a][1,2,4]triazepine-4-carboxamido]-4-oxobutanoic acid], the melting point fell in the range of 157 to 162 °C. The compound further yielded a Ki in data set [1] (Table 17) of 1200 nM. In addition, the clearance in data set [2] (Table 17) was found to be 24 mL/min/kg.
In the case of `O=C[C@H](CC(=O)O)NC(=O)[C@@H]1CCCN2C(=O)CCN(NS(=O)(=O)c3ccc4ccccc4c3)C(=O)N12` [Compound 265a, [3S(4 S)]3-[6,10-Dioxo-7-(2-naphthalenesulfonyl)amino-1,2,3,4,7,8,9,10-octahydro-6H-pyridazino[1,2-a][1,2,4]triazepine-4-carboxamido]-4-oxobutanoic acid], the melting point is 126 to 130 °C (dec.). In data set [1] (Table 17), this compound had a Ki of 2600 nM. In addition, the IC50 in data set [4] was determined as 25000 nM.
Consider `O=C(O)C[C@H](NC(=O)[C@@H]1CCCN2C(=O)CC[C@H](NC(=O)c3ccccc3)C(=O)N12)C(=O)Cn1cnccc1=O` [Compound 510d, [3S(1S,9S)]3-[6,10-Dioxo-1,2,3,4,7,8,9,10-octahydro-9-(phenycarbonylamino)-6H-pyridazino[1,2-a][1,2]diazepine-1-carboxamido]-4-oxo-5-{2-[4(3H)-pyrimidone]}pentanoic acid], for which the melting point fell in the range of 140 to 180 °C. The compound further came in with a Ki in data set [1] (Table 17) of 2300 nM. This compound yielded an IC50 in data set [4] of over 20000 nM.
As to `CCOC1OC(=O)C[C@@H]1NC(=O)[C@@H]1CCCN2C(=O)CC[C@H](NC(=O)c3cc4ccccc4[nH]3)C(=O)N12` (stereo partly drawn) [Compound 550o, [1S,9S(2RS,3S)]6,10-Dioxo-N-(2-ethoxy-5-oxotetrahydrofuran-3-yl)-9-(2-indoloylamino)-1,2,3,4,7,8,9,10-octahydro-6H-pyridazino[1,2-a][1,2]diazepine-1-carboxamide], the melting point lay in the range of 155 to 170 °C. Also, in data set [5], the IC50 worked out at 3000 nM. For the same compound, the 50% inhibitory concentration (IC50) in data set [4] turned out to be 450 nM. Also, in data set [3] (setting [6]), the inhibition at 50 mg/kg is 64%. Besides, the inhibition at 50 mg/kg in data set [3] (setting [7]) turned out to be 19%.
`COc1ccc(C(=O)NN2CCC(=O)N3CCC[C@@H](C(=O)N[C@H](C=O)CC(=O)O)N3C2=O)cc1` [Compound 1052, [3S(4S)]3-[6,10-Dioxo-7-(4-methoxybenzoylamino)-octahydro-6H-pyridazino[1,2-a][1,2,4]triazepine-4-carboxamido]-4-oxobutanoic acid] registered a melting point of 138 to 142 °C. This compound gave a Ki in data set [1] (Table 17) of 100 nM. The compound also showed an IC50 in data set [4] of 2500 nM. Moreover, in data set [2] (Table 17), the clearance amounted to 16 mL/min/kg.
